Measurements published in US9376425B2, “Heterocyclic compounds as MDM2 inhibitors for the treatment of cancer” (AMGEN INC., priority 2011, dated 2016).

Biological target: T1, human MDM2 (GST-hMDM2 1-188), interaction with biotinylated-p53 (1-83) (Homo sapiens, UniProt Q00987)
T1 construct: Amino acid residues 1-188 of human MDM2 were expressed; made in house; host or cells: Escherichia coli
Assay: improved HTRF assay (HTRF2 assay), inhibition of HDM2-p53 interaction
Format: binding
Details: 0.2 nM GST-hMDM2, 0.5 nM biotinylated-p53, 100 mM KF
Procedure: Residues 1-83 of human p53 were expressed as an amino-terminal AviTag™-TrxA-6xHis fusion protein (biotinylated p53) in E. coli. Each protein was purified from cell paste by affinity chromatography.
Specifically, 10 uL of GST-hMDM2 was incubated with 10 ul of diluted compound (various concentrations, serially diluted) in 10% DMSO for 20 minutes at room temperature. 20 uL of biotinylated-p53 was added to the GST-hMDM2+ compound mixture, and then incubated at room temperature for 60 min. 10 uL of detection buffer consisting of SA-XLent, anti-GST cryptate antibody and KF was added to GST-hMDM2, biotinylated-p53 and compound reaction and left at room temperature to reach equilibrium for >4 hrs. The final concentration of DMSO in the reaction was 2%. Time-resolved fluorescence readings were measured on a microplate multilabel reader. Percentage of inhibition was calculated relative to nutlin-3.

T1 sequence (Q00987 1-188): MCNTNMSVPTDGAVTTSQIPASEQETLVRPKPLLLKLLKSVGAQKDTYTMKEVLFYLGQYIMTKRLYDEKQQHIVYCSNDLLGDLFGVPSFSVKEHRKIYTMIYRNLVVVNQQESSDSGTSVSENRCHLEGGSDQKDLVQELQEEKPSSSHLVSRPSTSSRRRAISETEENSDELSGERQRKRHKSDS

`CC[C@@H](CN(c1ccccc1F)S(=O)(=O)C1CC1)N1C(=O)[C@H](CC(=O)NS(=O)(=O)C(C)C)O[C@H](c2cccc(Cl)c2)[C@H]1c1ccc(Cl)cc1` (single isomer, unassigned) [Example 258, 2-((2S,5R,6R)-6-(3-chlorophenyl)-5-(4-chlorophenyl)-4-((S)-1-(N-(2-fluorophenyl)cyclopropanesulfonamido)butan-2-yl)-3-oxomorpholin-2-yl)-N-(isopropylsulfonyl)acetamide or 2-((2R,5R,6R)-6-(3-chlorophenyl)-5-(4-chlorophenyl)-4-((5)-1-(N-(2-fluorophenyl)cyclopropanesulfonamido)butan-2-yl)-3-oxomorpholin-2-yl)-N-(isopropylsulfonyl)acetamide] was tested, and the IC50 was 1 nM.
`CC(C)[C@@H](CN(c1ccccc1)S(=O)(=O)C1CC1)N1C(=O)[C@@H](CC(=O)O)O[C@H](c2cccc(Cl)c2)[C@H]1c1ccc(Cl)cc1` (single isomer, unassigned) [Example 192, 2-((2R,5R,6R)-6-(3-chlorophenyl)-5-(4-chlorophenyl)-4-((S)-3-methyl-1-(N-phenylcyclopropanesulfonamido)butan-2-yl)-3-oxomorpholin-2-yl)acetic acid or 2-((2S,5R,6R)-6-(3-chlorophenyl)-5-(4-chlorophenyl)-4-((S)-3-methyl-1-(N-phenylcyclopropanesulfonamido)butan-2-yl)-3-oxomorpholin-2-yl)acetic acid] showed an IC50 of 1 nM.
In the case of `CC(C)(C#N)S(=O)(=O)C[C@H](C1CC1)N1C(=O)[C@@H](CC(=O)O)O[C@H](c2cccc(Cl)c2)[C@H]1c1ccc(Cl)cc1` (single isomer, unassigned) [Example 291, 2-((2R,5R,6R)-6-(3-Chlorophenyl)-5-(4-chlorophenyl)-4-((S)-2-((2-cyanopropan-2-yl)sulfonyl)-1-cyclopropylethyl)-3-oxomorpholin-2-yl)acetic acid or 2-((2S,5R,6R)-6-(3-chlorophenyl)-5-(4-chlorophenyl)-4-((S)-2-((2-cyanopropan-2-yl)sulfonyl)-1-cyclopropylethyl)-3-oxomorpholin-2-yl)acetic acid], the IC50 is reported as under 1 nM.
Work on `CC[C@@H](CS(=O)(=O)C(C)(C)C)N1C(=O)[C@@H](CC(=O)O)O[C@H](c2cc(F)cc(Cl)c2)[C@H]1c1ccc(Cl)c(F)c1` (single isomer, unassigned) [Example 426, 2-((2R,5R,6R)-4-((S)-1-(tert-Butylsulfonyl)butan-2-yl)-5-(4-chloro-3-fluorophenyl)-6-(3-chloro-5-fluorophenyl)-3-oxomorpholin-2-yl)acetic acid or 2-((2S,5R,6R)-4-((S)-1-(tert-butylsulfonyl)butan-2-yl)-5-(4-chloro-3-fluorophenyl)-6-(3-chloro-5-fluorophenyl)-3-oxomorpholin-2-yl)acetic acid] yielded an IC50 of 1 nM.
`CC[C@@H](CS(=O)(=O)c1ccccn1)N1C(=O)[C@@H](CC(=O)O)O[C@H](c2cccc(Cl)c2)[C@H]1c1ccc(Cl)cc1` (single isomer, unassigned) [Example 202, 2-((2R,5R,6R)-6-(3-chlorophenyl)-5-(4-chlorophenyl)-3-oxo-4-((S)-1-(pyridin-2-ylsulfonyl)butan-2-yl)morpholin-2-yl)acetic acid or 2-((2S,5R,6R)-6-(3-chlorophenyl)-5-(4-chlorophenyl)-3-oxo-4-((S)-1-(pyridin-2-ylsulfonyl)butan-2-yl)morpholin-2-yl)acetic acid] gave an IC50 of 4 nM.
`O=C1[C@@H](Cc2ncn[nH]2)O[C@H](c2cccc(Cl)c2)[C@@H](c2ccc(Cl)cc2)N1[C@H](CN(c1ccccc1F)S(=O)(=O)C1CC1)C1CC1` (single isomer, unassigned) [Example 396, N-((S)-2-((2R,5R,6R)-2-((1H-1,2,4-Triazol-5-yl)methyl)-6-(3-chlorophenyl)-5-(4-chlorophenyl)-3-oxomorpholino)-2-cyclopropylethyl)-N-(2-fluorophenyl)cyclopropanesulfonamide or N-((S)-2-((2S,5R,6R)-2-((1H-1,2,4-triazol-5-yl)methyl)-6-(3-chlorophenyl)-5-(4-chlorophenyl)-3-oxomorpholino)-2-cyclopropylethyl)-N-(2-fluorophenyl)cyclopropanesulfonamide] gave an IC50 of 2 nM.
With `CC[C@@H](CS(=O)(=O)C(C)(C)C)N1C(=O)[C@@H](CCO)O[C@H](c2cccc(Cl)c2)[C@H]1c1ccc(Cl)cc1` [Example 152, (2R,5R,6R)-4-((S)-1-(tert-butylsulfonyl)butan-2-yl)-6-(3-chlorophenyl)-5-(4-chlorophenyl)-2-(2-hydroxyethyl)morpholin-3-one] the IC50 was 37 nM.
For `CC[C@@H]([C@H](C)S(=O)(=O)C(C)C)N1C(=O)[C@@H](CC(=O)O)O[C@H](c2cccc(Cl)c2)[C@H]1c1ccc(Cl)cc1` (single isomer, unassigned) [Example 415], the IC50 was 1 nM.
`CN(C(C)(C)C)S(=O)(=O)C[C@H](C1CC1)N1C(=O)[C@@H](CC(=O)O)O[C@H](c2cccc(Cl)c2)[C@H]1c1ccc(Cl)cc1` (single isomer, unassigned) [Example 300, 2-((2R,5R,6R)-4-((S)-2-(N-(tert-Butyl)-N-methylsulfamoyl)-1-cyclopropylethyl)-6-(3-chlorophenyl)-5-(4-chlorophenyl)-3-oxomorpholin-2-yl)acetic acid or 2-((2S,5R,6R)-4-((S)-2-(N-(tert-butyl)-N-methylsulfamoyl)-1-cyclopropylethyl)-6-(3-chlorophenyl)-5-(4-chlorophenyl)-3-oxomorpholin-2-yl)acetic acid] showed an IC50 of under 1 nM.
`CC(C)(C)S(=O)(=O)C[C@H](C1CC1)N1C(=O)[C@@H](CC(=O)NCC#N)O[C@H](c2cccc(Cl)c2)[C@H]1c1ccc(Cl)cc1` (single isomer, unassigned) [Example 348, 2-((2R,5R,6R)-4-((S)-2-(tert-Butylsulfonyl)-1-cyclopropylethyl)-6-(3-chlorophenyl)-5-(4-chlorophenyl)-3-oxomorpholin-2-yl)-N-(cyanomethyl)acetamide or 2-((2S,5R,6R)-4-((S)-2-(tert-butylsulfonyl)-1-cyclopropylethyl)-6-(3-chlorophenyl)-5-(4-chlorophenyl)-3-oxomorpholin-2-yl)-N-(cyanomethyl)acetamide] showed an IC50 of 5 nM.
`CC[C@@H](CS(=O)(=O)C(C)(C)C)N1C(=O)[C@@H](C[C@@H](O)CO)O[C@H](c2cccc(Cl)c2)[C@H]1c1ccc(Cl)cc1` (single isomer, unassigned) [Example 371] was tested, and the IC50 was 15 nM.
In the case of `CCC[C@@H](CS(=O)(=O)C(C)(C)C)N1C(=O)[C@@H](CC(=O)O)O[C@H](c2cccc(Cl)c2)[C@H]1c1ccc(Cl)cc1` (single isomer, unassigned) [Example 195, 2-((2R,5R,6R)-4-((S)-1-(tert-butylsulfonyl)pentan-2-yl)-6-(3-chlorophenyl)-5-(4-chlorophenyl)-3-oxomorpholin-2-yl)acetic acid or 2-((2S,5R,6R)-4-((S)-1-(tert-butylsulfonyl)pentan-2-yl)-6-(3-chlorophenyl)-5-(4-chlorophenyl)-3-oxomorpholin-2-yl)acetic acid], the IC50 is reported as 3 nM.
